Data on 23 molecules can be found in US8288552B2, “Dihydropyridone amidesas P2X7 modulators” (Roche Palo Alto LLC, priority 2008, dated 2012).

SMILES strings stand for the structures.

A word on the pKi: it is the negative decadic logarithm of the Ki, by convention in mol/L. High values mean a low Ki, low ones a high Ki.

The assay has as its target T1, P2X7 (UniProt Q99572).
T1 sequence (Q99572 1-595): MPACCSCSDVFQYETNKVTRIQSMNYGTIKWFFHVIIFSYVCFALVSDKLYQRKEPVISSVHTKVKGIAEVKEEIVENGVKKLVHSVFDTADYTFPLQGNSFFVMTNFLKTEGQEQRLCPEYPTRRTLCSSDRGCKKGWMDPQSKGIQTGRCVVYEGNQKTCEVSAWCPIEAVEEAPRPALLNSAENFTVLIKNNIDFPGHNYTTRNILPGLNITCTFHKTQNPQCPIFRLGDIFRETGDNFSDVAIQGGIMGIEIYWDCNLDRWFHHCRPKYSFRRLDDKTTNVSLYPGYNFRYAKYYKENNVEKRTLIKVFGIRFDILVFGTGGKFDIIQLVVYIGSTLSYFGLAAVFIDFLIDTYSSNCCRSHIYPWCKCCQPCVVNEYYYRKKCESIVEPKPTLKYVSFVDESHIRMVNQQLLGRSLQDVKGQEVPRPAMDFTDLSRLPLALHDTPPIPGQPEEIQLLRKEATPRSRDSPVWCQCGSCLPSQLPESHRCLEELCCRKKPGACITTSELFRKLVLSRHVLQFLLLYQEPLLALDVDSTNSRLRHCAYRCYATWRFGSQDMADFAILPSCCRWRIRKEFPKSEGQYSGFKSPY
Briefly: P2X7 pKi of Table 1. The assay is classed as cell-based. How it is done:
Intracellular Calcium Flux (FLIPR) Assay
Compound and Reagent Preparation
Stock solutions of compounds were prepared from powders as a 10 mM DMSO stock solution. These solutions were stored at RT during the two week period of these experiments to prevent freeze-thaw of the DMSO stocks. The DMSO stocks were added to the appropriate assay buffer at a concentration of 10 μM, and then diluted serially to the final concentrations that were tested. […] The aqueous solutions of compounds as well as ATP (Sigma A7699) and BzATP (Sigma B6396) were prepared fresh for each day of experiment.
1321N1 cells stably expressing the full length human P2X7 gene (1321N1-hP2X7) and HEK293 cells stably expressing the full length rat P2X7 gene (HEK293-rP2X7) were obtained from the Roche Cell Culture Facility. 1321N1-hP2X7 cells were grown in Dulbecco's Modified Eagle's Medium (DMEM) high glucose supplemented with 10% FBS and 250 μg/mL G418. HEK293-rP2X7 cells were grown in DMEM/F-12 supplemented with 10% FBS, 1 mM CaCl2, 2 mM MgCl2, 2 mM L-Glutamine and 500 μg/ml G418. Cells were split such that they never became >70% confluent.
Intracellular Calcium Flux (FLIPR)
On the day prior to the experiment, 1321N1-hP2X7 or HEK293-rP2X7 cells were released into suspension with calcium-free PBS+Versene and washed by centrifugation with calcium-free PBS to remove the Versene. Cells were resuspended in growth medium at a density of 2.5×10^5 cells/mL and seeded into black walled, clear bottom 96 well plates (50,000 cells/well) approximately 18 hr prior to intracellular calcium flux experiments.
On the day of the experiment, plates were washed with FLIPR buffer (calcium- and magnesium-free Hank's Balanced Salt Solution (HBSS) supplemented with 10 mM Hepes, 2.5 mM probenecid and 2 mM calcium chloride) using a BIO-TEK 96 channel plate washer and incubated with […] fluo-3 dye at 37° C. for one hr. The dye was then removed by plate washing and the cells were allowed to equilibrate for 20 min at room temperature with antagonist or vehicle (FLIPR buffer). Agonist (100 μM BzATP final concentration for hP2X7; 5 μM BzATP final concentration or rP2X7) was added online with the FLIPR and fluorescence measurements made at 1 sec intervals for 60 sec followed by 3 sec intervals for a further 4 min (5 min total). A final addition of 5 μM ionomycin was made and the maximal BzATP-evoked fluorescence normalized to the maximal ionomycin-evoked fluorescence.
The molecule `Cc1ccc(C)c(NC(=O)C2=CNC(=O)C[C@@H]2c2ccc(F)cc2)c1` [Compound 55, (R)-4-(4-Fluoro-phenyl)-6-oxo-1,4,5,6-tetrahydro-pyridine-3-carboxylic acid (2,5-dimethyl-phenyl)-amide] registered a pKi of 7.535.

Take `Cc1ccc(C)c(NC(=O)C2=CNC(=O)C[C@H]2c2ccc(F)cc2)c1` [Compound 56, (S)-4-(4-Fluoro-phenyl)-6-oxo-1,4,5,6-tetrahydro-pyridine-3-carboxylic acid (2,5-dimethyl-phenyl)-amide]: the negative-log Ki (pKi) was 6.56.

In turn, `Cc1cccc(NC(=O)C2=CNC(=O)C[C@@H]2c2ccc(F)cc2)c1C` [Compound 57, (R)-4-(4-Fluoro-phenyl)-6-oxo-1,4,5,6-tetrahydro-pyridine-3-carboxylic acid (2,3-dimethyl-phenyl)-amide] returned a pKi of 7.405.

`Cc1cccc(NC(=O)C2=CNC(=O)C[C@H]2c2ccc(F)cc2)c1C` [Compound 58, (S)-4-(4-Fluoro-phenyl)-6-oxo-1,4,5,6-tetrahydro-pyridine-3-carboxylic acid (2,3-dimethyl-phenyl)-amide] yielded a negative-log Ki (pKi) of 6.785.

For `Cc1cc(C)c(Br)c(NC(=O)C2=CNC(=O)C[C@@H]2c2ccc(F)cc2)c1` [Compound 59, (R)-4-(4-Fluoro-phenyl)-6-oxo-1,4,5,6-tetrahydro-pyridine-3-carboxylic acid(2-bromo-3,5-dimethyl-phenyl)-amide], the negative logarithm of the Ki (pKi) came out at 7.57.

Molecule `Cc1cc(C)c(Br)c(NC(=O)C2=CNC(=O)C[C@H]2c2ccc(F)cc2)c1` [Compound 60, (S)-4-(4-Fluoro-phenyl)-6-oxo-1,4,5,6-tetrahydro-pyridine-3-carboxylic acid(2-bromo-3,5-dimethyl-phenyl)-amide] registered a pKi of 6.86.

In turn, `Cc1cc(Cl)c(OCCO)cc1NC(=O)C1=CNC(=O)CC1c1ccc(F)cc1` (centres unmarked) [Compound 61, 4-(4-Fluoro-phenyl)-6-oxo-1,4,5,6-tetrahydro-pyridine-3-carboxylic acid [4-chloro-5-(2-hydroxy-ethoxy)-2-methyl-phenyl]-amide] came in with a negative logarithm of the Ki (pKi) of 7.755.

Consider `Cc1cc(Cl)c(OCCO)cc1NC(=O)C1=CNC(=O)CC1c1cccc(F)c1` (centres unmarked) [Compound 62, 4-(3-Fluoro-phenyl)-6-oxo-1,4,5,6-tetrahydro-pyridine-3-carboxylic acid [4-chloro-5-(2-hydroxy-ethoxy)-2-methyl-phenyl]-amide], for which the pKi is 7.595.

For `Cc1cccc(NC(=O)C2=CNC(=O)CC2c2cccc(F)c2)c1C` (centres unmarked) [Compound 63, 4-(3-Fluoro-phenyl)-6-oxo-1,4,5,6-tetrahydro-pyridine-3-carboxylic acid(2,3-dimethyl-phenyl)-amide], the pKi was determined as 7.405.

For the molecule `COc1cc(NC(=O)C2=CNC(=O)CC2c2cccc(F)c2)c(C)cc1F` (centres unmarked) [Compound 64, 4-(3-Fluoro-phenyl)-6-oxo-1,4,5,6-tetrahydro-pyridine-3-carboxylic acid(4-fluoro-5-methoxy-2-methyl-phenyl)-amide], the negative logarithm of the Ki (pKi) worked out at 8.17.

`O=C1CC(c2ccc(F)cc2)C(C(=O)Nc2cc(OCCO)c(Cl)cc2Br)=CN1` (centres unmarked) [Compound 65, 4-(4-Fluoro-phenyl)-6-oxo-1,4,5,6-tetrahydro-pyridine-3-carboxylic acid[2-bromo-4-chloro-5-(2-hydroxy-ethoxy)-phenyl]-amide] registered a negative logarithm of the Ki (pKi) of 6.7.

`O=C1CC(c2cccc(F)c2)C(C(=O)Nc2cccc3c2CCC3)=CN1` (centres unmarked) [Compound 66, 4-(3-Fluoro-phenyl)-6-oxo-1,4,5,6-tetrahydro-pyridine-3-carboxylic acid indan-4-ylamide] had a negative-log Ki (pKi) of 6.915.

Molecule `Cc1ccc(S(N)(=O)=O)cc1NC(=O)C1=CNC(=O)CC1c1ccc(F)cc1` (centres unmarked) [Compound 67, 4-(4-Fluoro-phenyl)-6-oxo-1,4,5,6-tetrahydro-pyridine-3-carboxylic acid(2-methyl-5-sulfamoyl-phenyl)-amide] yielded a negative logarithm of the Ki (pKi) of 5.515.

With `Cc1ccc(C(C)C)cc1NC(=O)C1=CNC(=O)C[C@H]1c1cccc(F)c1` [Compound 69, (S)-4-(3-Fluoro-phenyl)-6-oxo-1,4,5,6-tetrahydro-pyridine-3-carboxylic acid(5-isopropyl-2-methyl-phenyl)-amide], the pKi is on record as 7.01.

For the molecule `CCOc1cc(NC(=O)C2=CNC(=O)CC2c2cccc(F)c2)c(C)cc1Cl` (centres unmarked) [Compound 70, 4-(3-Fluoro-phenyl)-6-oxo-1,4,5,6-tetrahydro-pyridine-3-carboxylic acid(4-chloro-5-ethoxy-2-methyl-phenyl)-amide], the pKi was 7.425.

Turning to `Cc1cc(Cl)c(OCCO)cc1NC(=O)C1=CNC(=O)C[C@@H]1c1cccc(F)c1` [Compound 71, (R)-4-(3-Fluoro-phenyl)-6-oxo-1,4,5,6-tetrahydro-pyridine-3-carboxylic acid[4-chloro-5-(2-hydroxy-ethoxy)-2-methyl-phenyl]-amide], the pKi is 6.815.

As to `Cc1cc(Cl)c(OCCO)cc1NC(=O)C1=CNC(=O)C[C@H]1c1cccc(F)c1` [Compound 72, (S)-4-(3-Fluoro-phenyl)-6-oxo-1,4,5,6-tetrahydro-pyridine-3-carboxylic acid[4-chloro-5-(2-hydroxy-ethoxy)-2-methyl-phenyl]-amide], the pKi is 7.8375.

The molecule `Cc1cc(Cl)c(OCCO)cc1NC(=O)C1=CNC(=O)C[C@H]1c1ccc(F)cc1` [Compound 73, (S)-4-(4-Fluoro-phenyl)-6-oxo-1,4,5,6-tetrahydro-pyridine-3-carboxylic acid[4-chloro-5-(2-hydroxy-ethoxy)-2-methyl-phenyl]-amide] registered a negative-log Ki (pKi) of 7.63.

For `Cc1cc(Cl)c(OCCO)cc1NC(=O)C1=CNC(=O)C[C@@H]1c1ccc(F)cc1` [Compound 74, (R)-4-(4-Fluoro-phenyl)-6-oxo-1,4,5,6-tetrahydro-pyridine-3-carboxylic acid[4-chloro-5-(2-hydroxy-ethoxy)-2-methyl-phenyl]-amide], the pKi was found to be 6.63.

With `O=C1C[C@H](c2ccc(F)cc2)C(C(=O)Nc2cc(OCCO)c(Cl)cc2Br)=CN1` [Compound 75, (R)-4-(4-Fluoro-phenyl)-6-oxo-1,4,5,6-tetrahydro-pyridine-3-carboxylic acid[2-bromo-4-chloro-5-(2-hydroxy-ethoxy)-phenyl]-amide], the pKi stood at 6.245.

Molecule `O=C1C[C@@H](c2ccc(F)cc2)C(C(=O)Nc2cc(OCCO)c(Cl)cc2Br)=CN1` [Compound 76, (S)-4-(4-Fluoro-phenyl)-6-oxo-1,4,5,6-tetrahydro-pyridine-3-carboxylic acid[2-bromo-4-chloro-5-(2-hydroxy-ethoxy)-phenyl]-amide] displayed a pKi of 7.063.

Molecule `Cc1cc(Cl)c(OCC(C)O)cc1NC(=O)C1=CNC(=O)CC1c1cccc(F)c1` (centres unmarked) [Compound 77, 4-(3-Fluoro-phenyl)-6-oxo-1,4,5,6-tetrahydro-pyridine-3-carboxylic acid[4-chloro-5-(2-hydroxy-propoxy)-2-methyl-phenyl]-amide] returned a negative logarithm of the Ki (pKi) of 7.375.

Turning to `O=C1C[C@@H](c2cccc(F)c2)C(C(=O)Nc2cc(OCCO)c(Cl)cc2Br)=CN1` [Compound 78, (S)-4-(3-Fluoro-phenyl)-6-oxo-1,4,5,6-tetrahydro-pyridine-3-carboxylic acid[2-bromo-4-chloro-5-(2-hydroxy-ethoxy)-phenyl]-amide], the pKi came out at 7.695.
